Measurements as given in patent US11649255B2, “Indazoles as hematopoietic progenitor kinase 1 (HPK1) inhibitors and methods using same” (1st Biotherapeutics, Inc., priority 2020, dated 2023).

Molecular target: recombinant human HPK1 (Homo sapiens (Human), UniProt Q92918)
Test: HPK1 kinase assay (ADP-Glo)
Format: biochemical
Details: 25 μM ATP, MBP substrate
Procedure, shortened: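 Activity was read as ADP formed, detected by ADP-Glo luminescence after the reaction of 5 ng recombinant human HPK1 with MBP and ATP (stocks 0.5 μg/μl and 25 μM) for 40 min at 30 °C. Buffer was Tris pH 7.5 with MgCl2, BSA and DTT, with compound in 0.5% DMSO. IC50 came from inhibition curves.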

Sequence of recombinant human HPK1 (Q92918 whole entry): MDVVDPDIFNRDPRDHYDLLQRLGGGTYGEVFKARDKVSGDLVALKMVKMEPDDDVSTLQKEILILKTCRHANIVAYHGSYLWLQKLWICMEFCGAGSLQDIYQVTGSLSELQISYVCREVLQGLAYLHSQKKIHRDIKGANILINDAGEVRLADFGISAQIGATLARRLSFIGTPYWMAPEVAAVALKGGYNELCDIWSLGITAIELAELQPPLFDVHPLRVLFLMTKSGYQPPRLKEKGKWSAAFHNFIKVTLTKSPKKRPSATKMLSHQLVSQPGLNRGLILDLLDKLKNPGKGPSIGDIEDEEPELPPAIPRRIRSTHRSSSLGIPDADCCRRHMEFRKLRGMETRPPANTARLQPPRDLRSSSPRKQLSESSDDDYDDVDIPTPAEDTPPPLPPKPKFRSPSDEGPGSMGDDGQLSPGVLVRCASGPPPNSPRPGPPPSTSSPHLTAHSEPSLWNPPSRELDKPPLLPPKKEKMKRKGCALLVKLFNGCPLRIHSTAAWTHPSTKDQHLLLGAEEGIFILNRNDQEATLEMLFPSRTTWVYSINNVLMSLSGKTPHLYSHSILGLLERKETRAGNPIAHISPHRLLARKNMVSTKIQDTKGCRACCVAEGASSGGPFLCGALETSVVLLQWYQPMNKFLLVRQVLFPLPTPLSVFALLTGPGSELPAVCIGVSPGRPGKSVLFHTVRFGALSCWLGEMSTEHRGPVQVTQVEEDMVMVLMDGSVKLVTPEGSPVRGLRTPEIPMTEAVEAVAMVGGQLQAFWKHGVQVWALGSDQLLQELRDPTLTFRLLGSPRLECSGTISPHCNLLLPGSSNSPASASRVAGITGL

| IC50 | SMILES |
| --- | --- |
| < 100 nM | CC(NC=O)c1c(F)c(Cl)c(-c2ccn3nc(NC(=O)[C@@H]4C[C@@H]4F)cc3c2)c2cn[nH]c12 (stereo partly drawn) [Example 659, (1S,2S)-N-(5-(5-chloro-6-fluoro-7-(1-formamidoethyl)-1H-indazol-4-yl)pyrazolo[1,5-a]pyridin-2-yl)-2-fluorocyclopropane-1-carboxamide] |
| > 1000 nM | NC(=O)c1c(F)c(Cl)c(-c2ccc3nc(NC(=O)[C@@H]4C[C@@H]4F)cn3c2)c2cn[nH]c12 [Example 325, 5-chloro-6-fluoro-4-(2-((1S,2S)-2-fluorocyclopropane-1-carboxamido)imidazo[1,2-a]pyridin-6-yl)-1H-indazole-7-carboxamide] |
| < 100 nM | O=C(Nc1cn2cc(-c3c(Cl)c(F)c(N4CCC4)c4[nH]ncc34)ccc2n1)[C@@H]1C[C@@H]1F [Example 283, (1S,2S)-N-(6-(7-(azetidin-1-yl)-5-chloro-6-fluoro-1H-indazol-4-yl)imidazo[1,2-a]pyridin-2-yl)-2-fluorocyclopropane-1-carboxamide] |
| 101 to 500 nM | Cc1c(F)c([S+](C)[O-])c2[nH]ncc2c1-c1ccc2nc(NC(=O)[C@@H]3C[C@@H]3F)sc2n1 (stereo partly drawn) [Example 177, (1S,2S)-2-fluoro-N-(5-(6-fluoro-5-methyl-7-(methylsulfinyl)-1H-indazol-4-yl)thiazolo[5,4-b]pyridin-2-yl)cyclopropane-1-carboxamide] |
| < 100 nM | O=C(Nc1nc2ccc(-c3c(Br)c(F)cc4[nH]ncc34)nc2s1)[C@@H]1C[C@@H]1F [Example 160, (1S,2S)-N-(5-(5-bromo-6-fluoro-1H-indazol-4-yl)thiazolo[5,4-b]pyridin-2-yl)-2-fluorocyclopropane-1-carboxamide] |
| < 100 nM | Cc1c(F)c(N(C)C)c2[nH]ncc2c1-c1ccn2nc(NC(=O)[C@@H]3C[C@@H]3F)cc2c1 [Example 490, (1S,2S)-N-(5-(7-(dimethylamino)-6-fluoro-5-methyl-1H-indazol-4-yl)pyrazolo[1,5-a]pyridin-2-yl)-2-fluorocyclopropane-1-carboxamide] |
| < 100 nM | CN(c1c(F)c(Cl)c(-c2ccn3nc(NC(=O)[C@@H]4C[C@@H]4F)cc3c2)c2cn[nH]c12)C1CCC1 [Example 620, (1S,2S)-N-(5-(5-chloro-7-(cyclobutyl(methyl)amino)-6-fluoro-1H-indazol-4-yl)pyrazolo[1,5-a]pyridin-2-yl)-2-fluorocyclopropane-1-carboxamide] |
| < 100 nM | CN(c1c(F)c(Cl)c(-c2ccn3nc(NC(=O)[C@@H]4C[C@@H]4F)cc3c2)c2cn[nH]c12)C1CCC(O)C1 (stereo partly drawn) [Example 555, (1S,2S)-N-(5-(5-chloro-6-fluoro-7-((3-hydroxycyclopentyl)(methyl)amino)-1H-indazol-4-yl)pyrazolo[1,5-a]pyridin-2-yl)-2-fluorocyclopropane-1-carboxamide] |
| > 1000 nM | O=C(Nc1nc2ccc(-c3cccc4[nH]ncc34)cc2s1)C1CC1 [Example 14, N-(6-(1H-indazol-4-yl)benzo[d]thiazol-2-yl)cyclopropanecarboxamide] |
| > 1000 nM | CN(C)c1ccc2[nH]ncc2c1-c1ccn2nc(NC(=O)[C@@H]3C[C@@H]3F)cc2c1 [Example 450, (1S,2S)-N-(5-(5-(dimethylamino)-1H-indazol-4-yl)pyrazolo[1,5-a]pyridin-2-yl)-2-fluorocyclopropane-1-carboxamide] |
| 101 to 500 nM | COc1ccc2[nH]ncc2c1-c1ccn2nc(NC(=O)[C@@H]3C[C@@H]3F)cc2c1 [Example 449, (1S,2S)-2-fluoro-N-(5-(5-methoxy-1H-indazol-4-yl)pyrazolo[1,5-a]pyridin-2-yl)cyclopropane-1-carboxamide] |
| > 1000 nM | O=C(Nc1nc2ccc(-c3c(-c4cccs4)ccc4[nH]ncc34)cc2s1)C1CC1 [Example 13, N-(6-(5-(thiophen-2-yl)-1H-indazol-4-yl)benzo[d]thiazol-2-yl)cyclopropanecarboxamide] |
| < 100 nM | COC(=O)c1c(F)c(C)c(-c2ccn3nc(NC(=O)[C@@H]4C[C@@H]4F)cc3c2)c2cn[nH]c12 [Example 548, methyl 6-fluoro-4-(2-((1S,2S)-2-fluorocyclopropane-1-carboxamido)pyrazolo[1,5-a]pyridin-5-yl)-5-methyl-1H-indazole-7-carboxylate] |
| > 1000 nM | Cc1ccc2[nH]nc(N)c2c1-c1ccc2nc(NC(=O)C3CC3)sc2c1 [Example 26, N-(6-(3-amino-5-methyl-1H-indazol-4-yl)benzo[d]thiazol-2-yl)cyclopropanecarboxamide] |
| < 100 nM | CC(c1c(F)c(Cl)c(-c2ccc3nc(NC(=O)[C@@H]4C[C@@H]4F)cn3c2)c2cn[nH]c12)S(C)(=O)=O (stereo partly drawn) [Example 444, (1S,2S)-N-(6-(5-chloro-6-fluoro-7-(1-(methylsulfonyl)ethyl)-1H-indazol-4-yl)imidazo[1,2-a]pyridin-2-yl)-2-fluorocyclopropane-1-carboxamide] |
| < 100 nM | CC(C)Oc1c(F)c(Cl)c(-c2ccc3nc(NC(=O)[C@@H]4C[C@@H]4F)cn3c2)c2cn[nH]c12 [Example 404, (1S,2S)-N-(6-(5-chloro-6-fluoro-7-isopropoxy-1H-indazol-4-yl)imidazo[1,2-a]pyridin-2-yl)-2-fluorocyclopropane-1-carboxamide] |

| IC50 | SMILES |
| --- | --- |
| < 100 nM | O=C(Nc1cn2cc(-c3c(C(F)F)c(F)cc4[nH]ncc34)ccc2n1)C1CC1 [Example 255, N-(6-(5-(difluoromethyl)-6-fluoro-1H-indazol-4-yl)imidazo[1,2-a]pyridin-2-yl)cyclopropanecarboxamide] |
| < 100 nM | CN(c1ccncn1)c1c(F)c(Cl)c(-c2ccc3nc(NC(=O)[C@@H]4C[C@@H]4F)cn3c2)c2cn[nH]c12 [Example 348, (1S,2S)-N-(6-(5-chloro-6-fluoro-7-(methyl(pyrimidin-4-yl)amino)-1H-indazol-4-yl)imidazo[1,2-a]pyridin-2-yl)-2-fluorocyclopropane-1-carboxamide] |
| < 100 nM | CCOc1c(F)c(SC)c2[nH]ncc2c1-c1ccn2nc(NC(=O)[C@@H]3C[C@@H]3F)cc2c1 [Example 606, (1S,2S)-N-(5-(5-ethoxy-6-fluoro-7-(methylthio)-1H-indazol-4-yl)pyrazolo[1,5-a]pyridin-2-yl)-2-fluorocyclopropane-1-carboxamide] |
| 101 to 500 nM | COc1ccc2[nH]ncc2c1-c1ccc2nc(NC(=O)C3CC3)sc2c1 [Example 24, N-(6-(5-methoxy-1H-indazol-4-yl)benzo[d]thiazol-2-yl)cyclopropanecarboxamide] |
| < 100 nM | C=Cc1c(F)cc2[nH]ncc2c1-c1ccc2nc(NC(=O)C3CC3)cn2c1 [Example 235, N-(6-(6-fluoro-5-vinyl-1H-indazol-4-yl)imidazo[1,2-a]pyridin-2-yl)cyclopropanecarboxamide] |
| > 1000 nM | Cc1c(F)cc2[nH]nc(C3CC3)c2c1-c1ccn2nc(NC(=O)[C@@H]3C[C@@H]3F)cc2c1 [Example 473, (1S,2S)-N-(5-(3-cyclopropyl-6-fluoro-5-methyl-1H-indazol-4-yl)pyrazolo[1,5-a]pyridin-2-yl)-2-fluorocyclopropane-1-carboxamide] |
| < 100 nM | CN(CCO)c1c(F)c(Cl)c(-c2ccc3nc(NC(=O)[C@@H]4C[C@@H]4F)sc3c2)c2cn[nH]c12 [Example 93, (1S,2S)-N-(6-(5-chloro-6-fluoro-7-((2-hydroxyethyl)(methyl)amino)-1H-indazol-4-yl)benzo[d]thiazol-2-yl)-2-fluorocyclopropanecarboxamide] |
| < 100 nM | O=C(Nc1cn2cc(-c3c(C(F)F)c(F)cc4[nH]ncc34)ccc2n1)[C@@H]1C[C@@H]1F [Example 253, (1S,2S)-N-(6-(5-(difluoromethyl)-6-fluoro-1H-indazol-4-yl)imidazo[1,2-a]pyridin-2-yl)-2-fluorocyclopropane-1-carboxamide] |
| < 100 nM | CN(C(=O)O)C1CN(c2c(F)c(Cl)c(-c3ccc4nc(NC(=O)[C@@H]5C[C@@H]5F)sc4c3)c3cn[nH]c23)C1 [Example 89, (1-(5-chloro-6-fluoro-4-(2-((1S,2S)-2-fluorocyclopropane-1-carboxamido)benzo[d]thiazol-6-yl)-1H-indazol-7-yl)azetidin-3-yl)(methyl)carbamic acid] |
| < 100 nM | CC(C)(O)c1c(F)c(Cl)c(-c2ccc3nc(NC(=O)[C@@H]4C[C@@H]4F)cn3c2)c2cn[nH]c12 [Example 389, (1S,2S)-N-(6-(5-chloro-6-fluoro-7-(2-hydroxypropan-2-yl)-1H-indazol-4-yl)imidazo[1,2-a]pyridin-2-yl)-2-fluorocyclopropane-1-carboxamide] |
| < 100 nM | CN(c1c(F)c(Cl)c(-c2ccn3nc(NC(=O)[C@@H]4C[C@@H]4F)cc3c2)c2cn[nH]c12)C1CCC(N)CC1 (stereo partly shown) [Example 514] |
| < 100 nM | CC(Nc1c(F)c(Cl)c(-c2ccn3nc(NC(=O)[C@@H]4C[C@@H]4F)cc3c2)c2cn[nH]c12)C1CC1 (stereo partly drawn) [Example 653, (1S,2S)-N-(5-(5-chloro-7-((1-cyclopropylethyl)amino)-6-fluoro-1H-indazol-4-yl)pyrazolo[1,5-a]pyridin-2-yl)-2-fluorocyclopropane-1-carboxamide] |
| < 100 nM | C=CC(=O)Nc1cc(C)c(-c2ccc3nc(NC(=O)[C@@H]4C[C@@H]4F)cn3c2)c2cn[nH]c12 [Example 274, (1S,2S)-N-(6-(7-acrylamido-5-methyl-1H-indazol-4-yl)imidazo[1,2-a]pyridin-2-yl)-2-fluorocyclopropane-1-carboxamide] |
| < 100 nM | Cc1c(F)c(C(F)F)c2[nH]ncc2c1-c1ccn2nc(NC(=O)[C@@H]3C[C@@H]3F)cc2c1 [Example 591, (1S,2S)-N-(5-(7-(difluoromethyl)-6-fluoro-5-methyl-1H-indazol-4-yl)pyrazolo[1,5-a]pyridin-2-yl)-2-fluorocyclopropane-1-carboxamide] |
| > 1000 nM | Cc1c(F)c(C(=O)O)c2[nH]ncc2c1-c1ccn2nc(NC(=O)[C@@H]3C[C@@H]3F)cc2c1 [Example 549, 6-fluoro-4-(2-((1S,2S)-2-fluorocyclopropane-1-carboxamido)pyrazolo[1,5-a]pyridin-5-yl)-5-methyl-1H-indazole-7-carboxylic acid] |
